Reference: ChEMBL document CHEMBL3132769, “Fragment growing to retain or alter the selectivity of anchored kinase hinge-binding fragments” (Medchemcomm, 2014)

Key:
[1] = biological target: Glycogen synthase kinase-3 beta (Homo sapiens) (UniProt P49841); assay: Inhibition of human full length GSK-3 beta expressed in baculovirus assessed as substrate phosphorylation using fluorescence-labelled peptides as substrate at 95 uM after 90 mins by microfluidic peptide phosphorylation assay
[2] = biological target: MAP kinase p38 (Homo sapiens) (UniProt O15264+Q15759+Q16539+P53778); assay: Inhibition of human full length p38 beta2 expressed in Escherichia coli cell assessed as substrate phosphorylation using fluorescence-labelled peptides as substrate at 95 uM after 90 mins by microfluidic peptide phosphorylation assay
[3] = biological target: T1, Serine/threonine-protein kinase 3 (Homo sapiens) (UniProt Q13188); assay: Inhibition of human full length MST2 expressed in baculovirus assessed as substrate phosphorylation using fluorescence-labelled peptides as substrate at 2 uM after 90 mins by microfluidic peptide phosphorylation assay
T1 sequence (whole entry): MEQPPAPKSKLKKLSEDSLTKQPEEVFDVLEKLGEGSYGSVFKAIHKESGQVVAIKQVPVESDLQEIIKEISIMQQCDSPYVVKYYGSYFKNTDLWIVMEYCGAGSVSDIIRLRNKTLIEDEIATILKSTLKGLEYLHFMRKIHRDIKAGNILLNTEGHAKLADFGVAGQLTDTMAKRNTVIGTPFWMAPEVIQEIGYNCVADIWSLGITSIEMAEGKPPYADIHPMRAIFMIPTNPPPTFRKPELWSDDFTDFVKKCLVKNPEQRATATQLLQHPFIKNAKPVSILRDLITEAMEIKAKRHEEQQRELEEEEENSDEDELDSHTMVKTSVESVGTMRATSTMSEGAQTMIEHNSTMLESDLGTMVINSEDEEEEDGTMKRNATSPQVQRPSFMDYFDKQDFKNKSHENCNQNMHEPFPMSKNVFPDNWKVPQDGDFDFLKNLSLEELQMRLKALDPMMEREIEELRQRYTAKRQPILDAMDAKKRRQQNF

[4] = biological target: T2, Testis-specific serine/threonine-protein kinase 2 (Homo sapiens) (UniProt Q96PF2); assay: Inhibition of human full length TSSK2 expressed in baculovirus assessed as substrate phosphorylation using fluorescence-labelled peptides as substrate at 1000 uM after 90 mins by microfluidic peptide phosphorylation assay
T2 sequence (whole entry): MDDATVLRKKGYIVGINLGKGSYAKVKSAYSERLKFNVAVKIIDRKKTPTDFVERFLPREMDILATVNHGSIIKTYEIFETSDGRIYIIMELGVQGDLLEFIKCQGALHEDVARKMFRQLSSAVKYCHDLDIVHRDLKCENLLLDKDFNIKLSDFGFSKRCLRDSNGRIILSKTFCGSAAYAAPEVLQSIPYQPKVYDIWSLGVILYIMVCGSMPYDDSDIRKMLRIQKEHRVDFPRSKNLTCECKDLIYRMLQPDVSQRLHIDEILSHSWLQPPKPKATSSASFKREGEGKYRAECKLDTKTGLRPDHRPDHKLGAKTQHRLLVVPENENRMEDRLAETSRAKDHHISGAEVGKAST

[5] = biological target: MAP kinase-activated protein kinase 2 (Homo sapiens) (UniProt P49137); details: 0.1 uM
Description: Inhibition of human full length MAPKAPK2 expressed in baculovirus assessed as substrate phosphorylation using fluorescence-labelled peptides as substrate at 0.1 uM after 90 mins by microfluidic peptide phosphorylation assay

[6] = biological target: Receptor-type tyrosine-protein kinase FLT3 (Homo sapiens) (UniProt P36888); assay: Inhibition of human FLT3 catalytic domain expressed in baculovirus assessed as substrate phosphorylation using fluorescence-labelled peptides as substrate at […] after 90 mins by microfluidic peptide phosphorylation assay
[7] = biological target: T3, Serine/threonine-protein kinase DCLK2 (Homo sapiens) (UniProt Q8N568); assay: Inhibition of human full length DCAMKL2 expressed in baculovirus assessed as substrate phosphorylation using fluorescence-labelled peptides as substrate at 9 uM after 90 mins by microfluidic peptide phosphorylation assay
T3 sequence (whole entry): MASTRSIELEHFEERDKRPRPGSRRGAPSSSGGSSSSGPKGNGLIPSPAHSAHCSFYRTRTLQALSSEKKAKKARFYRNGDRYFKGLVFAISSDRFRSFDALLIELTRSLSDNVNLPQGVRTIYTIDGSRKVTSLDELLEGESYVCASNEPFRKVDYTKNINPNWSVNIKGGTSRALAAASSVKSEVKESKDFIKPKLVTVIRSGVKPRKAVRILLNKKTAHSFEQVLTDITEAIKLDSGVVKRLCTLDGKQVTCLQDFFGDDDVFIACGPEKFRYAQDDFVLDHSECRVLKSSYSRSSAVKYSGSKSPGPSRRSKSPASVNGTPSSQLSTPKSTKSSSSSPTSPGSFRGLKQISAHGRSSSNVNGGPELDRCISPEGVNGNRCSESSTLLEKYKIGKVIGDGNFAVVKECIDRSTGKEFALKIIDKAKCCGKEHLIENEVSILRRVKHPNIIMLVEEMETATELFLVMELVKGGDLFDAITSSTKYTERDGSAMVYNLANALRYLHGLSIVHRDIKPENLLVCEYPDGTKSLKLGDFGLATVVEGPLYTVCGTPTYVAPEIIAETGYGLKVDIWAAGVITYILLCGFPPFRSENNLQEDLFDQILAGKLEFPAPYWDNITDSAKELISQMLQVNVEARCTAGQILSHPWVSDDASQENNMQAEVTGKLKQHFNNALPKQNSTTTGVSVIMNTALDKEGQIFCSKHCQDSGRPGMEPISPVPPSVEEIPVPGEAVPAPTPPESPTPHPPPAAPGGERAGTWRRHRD

[8] = biological target: Protein kinase C gamma type (Homo sapiens) (UniProt P05129); assay: Inhibition of human truncated PKC gamma expressed in baculovirus assessed as substrate phosphorylation using fluorescence-labelled peptides as substrate at 70 uM after 90 mins by microfluidic peptide phosphorylation assay
[9] = biological target: T4, Serine/threonine-protein kinase Sgk3 (Homo sapiens) (UniProt Q96BR1); assay: Inhibition of human full length SGK3 expressed in baculovirus assessed as substrate phosphorylation using fluorescence-labelled peptides as substrate at 70 uM after 90 mins by microfluidic peptide phosphorylation assay
T4 sequence (whole entry): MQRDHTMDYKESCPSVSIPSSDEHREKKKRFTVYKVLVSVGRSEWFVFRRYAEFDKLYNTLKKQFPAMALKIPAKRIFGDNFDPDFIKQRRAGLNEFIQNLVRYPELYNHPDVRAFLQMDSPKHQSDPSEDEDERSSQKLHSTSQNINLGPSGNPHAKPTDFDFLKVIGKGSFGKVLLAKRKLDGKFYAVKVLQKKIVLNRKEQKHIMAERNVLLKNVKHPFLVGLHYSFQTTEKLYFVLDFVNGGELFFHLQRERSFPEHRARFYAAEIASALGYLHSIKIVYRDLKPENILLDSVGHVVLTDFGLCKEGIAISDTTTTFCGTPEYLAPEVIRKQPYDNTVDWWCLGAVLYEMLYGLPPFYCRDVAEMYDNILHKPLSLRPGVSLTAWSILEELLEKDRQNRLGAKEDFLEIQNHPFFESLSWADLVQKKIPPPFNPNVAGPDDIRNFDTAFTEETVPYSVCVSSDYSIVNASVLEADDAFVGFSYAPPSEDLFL

MAP kinase-activated protein kinase 2 (Homo sapiens), sequence (P49137 whole entry, looked up, the tested form may be a part): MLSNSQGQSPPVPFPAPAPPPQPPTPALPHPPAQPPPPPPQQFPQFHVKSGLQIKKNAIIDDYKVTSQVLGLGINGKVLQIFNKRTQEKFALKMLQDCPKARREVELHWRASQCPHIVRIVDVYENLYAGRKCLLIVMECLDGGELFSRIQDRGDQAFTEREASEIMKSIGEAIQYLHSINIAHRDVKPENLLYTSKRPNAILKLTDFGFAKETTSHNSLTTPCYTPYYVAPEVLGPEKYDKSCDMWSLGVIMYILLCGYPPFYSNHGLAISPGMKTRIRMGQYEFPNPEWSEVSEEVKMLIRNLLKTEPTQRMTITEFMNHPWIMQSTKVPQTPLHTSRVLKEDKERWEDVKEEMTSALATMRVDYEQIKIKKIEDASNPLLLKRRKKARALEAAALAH
Glycogen synthase kinase-3 beta (Homo sapiens), sequence (P49841 whole entry, looked up): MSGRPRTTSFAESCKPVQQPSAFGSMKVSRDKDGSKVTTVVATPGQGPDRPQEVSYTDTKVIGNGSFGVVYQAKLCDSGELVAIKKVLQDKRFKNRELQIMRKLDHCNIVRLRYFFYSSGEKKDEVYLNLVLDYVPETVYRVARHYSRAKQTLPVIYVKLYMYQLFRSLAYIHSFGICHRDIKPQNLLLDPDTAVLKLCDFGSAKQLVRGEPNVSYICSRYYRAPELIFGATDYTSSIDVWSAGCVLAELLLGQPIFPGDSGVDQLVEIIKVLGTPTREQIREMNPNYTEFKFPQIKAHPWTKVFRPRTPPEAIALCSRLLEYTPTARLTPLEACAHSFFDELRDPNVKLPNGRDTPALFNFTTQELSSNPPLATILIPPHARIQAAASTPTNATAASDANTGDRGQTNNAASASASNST
Receptor-type tyrosine-protein kinase FLT3 (Homo sapiens), sequence (P36888 whole entry, the tested form may be a part): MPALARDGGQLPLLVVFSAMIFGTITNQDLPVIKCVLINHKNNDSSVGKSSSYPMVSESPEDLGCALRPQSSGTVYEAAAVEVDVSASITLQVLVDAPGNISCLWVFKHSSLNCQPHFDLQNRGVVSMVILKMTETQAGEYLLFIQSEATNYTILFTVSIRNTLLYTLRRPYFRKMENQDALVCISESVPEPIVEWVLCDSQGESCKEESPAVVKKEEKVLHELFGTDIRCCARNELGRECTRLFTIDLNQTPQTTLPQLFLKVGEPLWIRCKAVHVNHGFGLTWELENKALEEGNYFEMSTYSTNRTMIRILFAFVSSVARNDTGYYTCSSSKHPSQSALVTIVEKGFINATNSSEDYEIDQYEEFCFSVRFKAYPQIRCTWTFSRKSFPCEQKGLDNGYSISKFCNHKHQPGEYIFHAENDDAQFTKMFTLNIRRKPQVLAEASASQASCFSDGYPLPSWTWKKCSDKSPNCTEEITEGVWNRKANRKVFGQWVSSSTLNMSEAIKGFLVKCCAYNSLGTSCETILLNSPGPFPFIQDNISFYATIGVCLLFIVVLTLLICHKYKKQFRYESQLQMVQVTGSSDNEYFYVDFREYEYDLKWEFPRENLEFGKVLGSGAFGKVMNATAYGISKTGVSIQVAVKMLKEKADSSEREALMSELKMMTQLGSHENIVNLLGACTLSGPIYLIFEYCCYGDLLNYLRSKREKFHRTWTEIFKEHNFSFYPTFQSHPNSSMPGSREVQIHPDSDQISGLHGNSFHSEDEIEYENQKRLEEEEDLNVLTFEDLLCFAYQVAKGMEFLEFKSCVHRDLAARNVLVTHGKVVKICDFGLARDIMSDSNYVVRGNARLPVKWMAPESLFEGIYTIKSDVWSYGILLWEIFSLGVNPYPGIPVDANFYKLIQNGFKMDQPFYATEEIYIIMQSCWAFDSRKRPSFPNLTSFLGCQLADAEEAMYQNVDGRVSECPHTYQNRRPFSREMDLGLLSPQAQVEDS
MAP kinase p38 (Homo sapiens), sequence (O15264 whole entry, looked up): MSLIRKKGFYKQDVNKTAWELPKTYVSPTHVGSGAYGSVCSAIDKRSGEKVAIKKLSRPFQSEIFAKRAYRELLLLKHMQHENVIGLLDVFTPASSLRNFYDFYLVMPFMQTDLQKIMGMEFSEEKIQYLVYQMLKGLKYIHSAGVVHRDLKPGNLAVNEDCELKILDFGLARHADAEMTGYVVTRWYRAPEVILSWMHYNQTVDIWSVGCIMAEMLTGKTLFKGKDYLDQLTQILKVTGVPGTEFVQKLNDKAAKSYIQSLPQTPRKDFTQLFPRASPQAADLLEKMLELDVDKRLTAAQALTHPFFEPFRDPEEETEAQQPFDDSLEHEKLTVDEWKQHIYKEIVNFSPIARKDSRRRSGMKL
MAP kinase p38 (Homo sapiens), sequence (P53778 whole entry, looked up): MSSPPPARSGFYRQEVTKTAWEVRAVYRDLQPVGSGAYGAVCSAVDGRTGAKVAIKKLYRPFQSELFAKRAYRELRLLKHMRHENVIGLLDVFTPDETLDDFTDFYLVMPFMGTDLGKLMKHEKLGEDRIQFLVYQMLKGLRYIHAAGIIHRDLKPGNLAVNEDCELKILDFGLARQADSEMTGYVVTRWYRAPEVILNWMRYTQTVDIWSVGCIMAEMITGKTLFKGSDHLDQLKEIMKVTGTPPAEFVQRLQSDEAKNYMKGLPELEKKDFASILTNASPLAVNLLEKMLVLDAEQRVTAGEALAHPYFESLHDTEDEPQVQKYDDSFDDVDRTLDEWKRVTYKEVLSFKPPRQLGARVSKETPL
MAP kinase p38 (Homo sapiens), sequence (Q15759 whole entry, looked up): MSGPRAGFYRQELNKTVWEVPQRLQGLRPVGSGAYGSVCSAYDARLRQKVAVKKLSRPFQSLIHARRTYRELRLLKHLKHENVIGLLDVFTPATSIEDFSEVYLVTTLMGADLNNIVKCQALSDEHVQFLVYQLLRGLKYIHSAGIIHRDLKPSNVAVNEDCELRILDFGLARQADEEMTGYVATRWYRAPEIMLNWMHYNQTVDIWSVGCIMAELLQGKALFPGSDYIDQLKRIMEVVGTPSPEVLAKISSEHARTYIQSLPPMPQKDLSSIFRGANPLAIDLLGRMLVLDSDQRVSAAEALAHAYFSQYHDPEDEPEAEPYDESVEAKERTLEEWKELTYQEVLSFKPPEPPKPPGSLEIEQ
MAP kinase p38 (Homo sapiens), sequence (Q16539 whole entry, looked up): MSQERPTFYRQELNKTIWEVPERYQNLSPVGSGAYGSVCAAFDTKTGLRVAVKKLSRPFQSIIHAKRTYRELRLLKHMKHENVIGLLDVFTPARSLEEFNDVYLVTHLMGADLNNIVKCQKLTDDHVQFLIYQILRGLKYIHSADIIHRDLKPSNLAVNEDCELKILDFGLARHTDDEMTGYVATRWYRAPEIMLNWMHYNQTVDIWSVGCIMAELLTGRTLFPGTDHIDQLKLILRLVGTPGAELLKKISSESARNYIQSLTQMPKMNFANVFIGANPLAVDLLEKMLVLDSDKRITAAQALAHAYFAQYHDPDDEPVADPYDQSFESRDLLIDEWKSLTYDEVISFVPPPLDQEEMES

Question: With NCCc1ccc(-c2ncnc3[nH]cnc23)cc1 as the compound, how does the inhibition [1] read?
Answer: 55%

Question: And the inhibition [2]?
Answer: 11%

Question: For NC1CCN(c2ncnc3[nH]ccc23)CC1, which inhibition [3] is on record?
Answer: 17.5%

Question: c1cnc2[nH]ccc2c1 was tested. Which inhibition [4] did it give?
Answer: 37%

Question: C[C@H](CN(C)C)Oc1nc(Nc2cc3cccc(Cl)c3cn2)cnc1C#N was tested. Which inhibition [5] did it give?
Answer: 0%

Question: COC(=O)c1cnc(Nc2cnc(C#N)cn2)cc1NCC1CCNCC1 was tested. Which inhibition [6] did it give?
Answer: 21%

Question: Which inhibition [7] does the source give for NCC1CN(c2ncnc3[nH]c4cnccc4c23)CCO1 (centres undefined) here?
Answer: 3%

Question: Which results are given for CNCc1ccc(-c2ncnc3[nH]cnc23)cc1?
Answer: inhibition [8]: 64%; inhibition [9]: 58%
